From patent publication US10933044B2, “Marine organism-derived extract, compound, and medical composition having niche formation suppressing activity of leukemic stem cells” (WASEDA UNIVERSITY, priority 2016, dated 2021)
Entries after “also recorded” stand apart in the source; their conditions may differ.

Columns and labels:
[1] = test system: MB-1 cells co-cultured with OP9 cells; test: Apoptosis detection with NucView 488 Caspase-3 Assay Kit in co-culture of MB-1 cells and OP9 cells; type: cell-based, human; details: for Apoptosis induction of MB-1 cells (%): NucView 488 positive cells
Method: (§1) To a 12-well plate, OP9 cells treated with MMC were seeded at a density of 1.6×10^5 cells per well. After culture was performed for one day, MB-1 cells were seeded at a density of 8.0×10^4 cells per well. After culture was performed for two days, Stelliferin A was added in a concentration of 0.4 μg/mL. After culture was performed for one day, imatinib was added in a concentration of 0.2 μM or 1.0 μM. After culture was performed for one day, apoptosis was detected in the manner described below.
Apoptosis was detected by use of NucView 488 Caspase-3 Assay Kit for Live Cells (Biotium, USA) or a fluorescent reagent JC-1 (Cayman Chemical, USA) which detects mitochondrial membrane potential difference.
In evaluation by NucView 488, 0.05% trypsin-EDTA was added to individual wells. After incubation for 4 minutes, the culture liquid was added. Aliquots were separately taken and then centrifuged (1,200 rpm, 4 minutes) to collect cells. Each of the suspensions of the cells collected was controlled so as to obtain a density of 1.0×10^6 cells per mL. Aliquots (200 μL) were separately taken from the suspensions. To the cells thus taken, 5 μL of NucView 488 substrate stock solution of NucView 488 Caspase-3 Assay Kit for Live Cells was added and incubated in the darkness at normal temperature for 20 minutes. Culture liquid (300 μL) was added and subjected to analysis by a cell sorter (Type SH-800, SONY Corporation, Tokyo). The ratio of green fluorescent positive cells per each well was calculated.

[2] = test system: MB-1 cells; test: Apoptosis inducing action by imatinib alone in culture system of MB-1 cells alone (NucView 488); type: cell-based, human; details: imatinib 0.2 μM or 1.0 μM, one day; compared to MB-1 cells co-cultured in the absence of Stelliferin A
Method: Apoptosis inducing action by imatinib alone in a culture system of MB-1 cells alone was evaluated.
From a co-culture system with OP9 cells, MB-1 cells were purified by a cell sorter and seeded to 12-well plates at a density of 2.0×10^5 cells per well, and then, imatinib was added in a concentration of 0.2 μM or 1.0 μM. After culture was performed for one day, apoptosis was detected in the manner described below.
Apoptosis was detected by use of NucView 488 Caspase-3 Assay Kit for Live Cells (Biotium, USA) in the same manner as in the apoptosis detection performed in the co-culture system of MB-1 cells and OP9 cells.

[3] = test system: OP9 cells; test: CA formation when OP9 cells exposed to Stelliferin A are co-cultured with unexposed MB-1 cells; type: cell-based, mouse; details: OP9 cells exposed to 0.4 μg/mL Day 2 to Day 4, then unexposed MB-1 cells; compared to unexposed control
Method: On Day 1, OP9 cells were seeded in a culture medium in the same manner as above and incubated. On Day 2, Stelliferin A was added so as to be 0.4 μg/ml, and incubated. On Day 4, fresh MB-1 cells not exposed to Stelliferin A were seeded and co-cultured. On Day 6, whether CA was formed or not was examined. Also, for comparison, CA formation was examined in a control system where OP9 cells and MB-1 cells were co-cultured in the absence of Stelliferin A in accordance with the above schedule.

[4] = test system: TF-1 cells co-cultured with OP9 cells; test: Niche (CA) formation suppression in co-culture of TF-1 cells and OP9 cells; type: cell-based, human; details: TF-1/OP9 co-culture; Stelliferin A at 0.4 μg/mL, two days
Method: In order to verify that the action of Stelliferin A to suppress niche formation by MB-1 cells is not specific to MB-1 cells, the actions of a fat-soluble fraction of S12111 and Stelliferin A against niche formation by TF-1 cells were evaluated in a co-culture system of TF-1 cells (which have leukemic stem-cell-like characteristics similarly to MB-1 cells) and OP9 cells.
The experiment was carried out basically in the same manner as employed in the evaluation with MB-1 cells mentioned above except that TF-1 cells (strain derived from human bone marrow erythroleukemia cells) were used in place of MB-1 cells. In evaluation of Stelliferin A, more specifically, evaluation of niche formation suppressive action of Stelliferin A in the co-culture system of TF-1 cells and OP9 cells, OP9 cells (8.0×10^4) treated with MMC were seeded in individual wells of a 24-well plate. After culture was performed for one day, TF-1 cells (4.0×10^4) were seeded. The culture liquid used herein was IMDM (Gibco) containing 10% inactivated FBS (Biowest SAS, France) and 1% P/S. After culture was performed for one day, medium was exchanged. After culture was performed for further one day, Stelliferin A was added in a concentration of 0.4 μg/mL. After culture was performed for two days, the presence or absence of CA formation was observed by a microscope.

[5] = test system: MB-1 cells co-cultured with OP9 cells; test: CA reformation after Stelliferin A treatment of OP9/MB-1 co-culture and exchange of culture medium; type: cell-based, human; details: Stelliferin A 0.4 μg/mL Day 4 to Day 6, fresh medium without it, examined Day 8
Method: (§2) On Day 1, OP9 cells were seeded in a culture medium in the same manner as above and incubated. On Day 2, MB-1 cells were seeded and co-cultured with the OP9 cells. On day 4, Stelliferin A was added so as to be 0.4 μg/mL and incubated.

[6] = test system: MB-1 cells co-cultured with OP9 cells; test: Stereoscopic positional relationship between mCherry OP9 cells and GFP MB-1 cells by confocal microscope; type: cell-based, human; details: Stelliferin A 0.4 μg/mL, two days
Method: The effect of a Stelliferin compound on the stereoscopic positional relationship between OP9 cells (which serve as support cells in CA formation in the mouse mesenchymal cells) and MB-1 cells was examined by using OP9 cells and MB-1 cells to which fluorescent proteins were separately introduced.
To a 35-mm dish having a glass bottom, OP9 cells, which were treated with MMC and to which fluorescent protein mCherry was introduced, were seeded at a density of 4.0×10^5 cells. After culture was performed for one day, fluorescent protein GFP introduced MB-1 cells were seeded at a density of 2.0×10^5 cells. After culture was performed for two days, Stelliferin A was added in a concentration of 0.4 μg/mL. After culture was performed for two days, the stereoscopic positional relationship between the cells was photographed with a confocal microscope (Type IX81, Olympus Corporation), and examined.

[7] = test system: MB-1 cells co-cultured with OP9 cells; test: Screening for cobblestone area (CA) formation inhibitory activity in co-culture of OP9 cells and MB-1 cells; type: cell-based, human; details: OP9/MB-1 co-culture, 48 hours incubation with sample; tested at 10, 2, 0.4 and 0.08 μg/mL; microscopic observation
Method: In individual wells of a 96-well plate, OP9 cells (9.0×10^3) treated with 3 μg/mL mitomycin C (Sigma-Aldrich Co. LLC., USA) for 3 hours (37° C., 5% CO2) were seeded and incubated at 37° C. under 5% CO2. The culture liquid used herein was α MEM (Gibco) containing 20% inactivated FBS (MP Biomedicals, LLC., USA) and 1% penicillin-streptomycin (P/S, Gibco, Thermo Fisher Scientific Inc., USA). The following day, to the individual wells having OP9 cells seeded therein, MB-1 cells (2.5×10^3) were seeded. In the co-culture of the OP9 cells and MB-1 cells, the culture liquid used herein was α MEM containing 10% inactivated FBS (Biowest SAS, France), 1% P/S, 1% non-essential amino acids (NEAA, Invitrogen, Thermo Fisher Scientific Inc.) and 10 μM β-mercaptoethanol (Gibco). Forty-eight hours later, a Porifera sample (2 μL) dissolved in DMSO was added and diluted five times to prepare four solutions different in concentration (10 μg/mL, 2 μg/mL, 0.4 μg/mL and 0.08 μg/mL). After incubation was performed for 48 hours at 37° C. under 5% CO2, fixation was performed with 4% paraformaldehyde (Wako Pure Chemical Industries, Ltd.), nuclear-staining was performed with Hoechst 33342 (Dojindo Laboratories, Kumamoto) and observation was made with a microscope (Type IX71, Olympus Corporation Ltd., Tokyo). […]

[8] = test system: MB-1 cells; test: CA reformation when free MB-1 cells from treated co-culture are co-cultured with fresh OP9 cells; type: cell-based, human; details: Stelliferin A 0.4 μg/mL Day 4 to Day 6, then co-culture in the absence of Stelliferin A, examined Day 8
Method: as §2

[9] = test system: MB-1 cells co-cultured with OP9 cells; test: Apoptosis detection with JC-1 mitochondrial membrane potential reagent in co-culture of MB-1 cells and OP9 cells; type: cell-based, human
Method: The effect of the Stelliferin compound on CA formed by co-culture of OP9 cells (serving as support cells for the CA formation in the mouse mesenchymal cells) and MB-1 cells was examined by apoptosis detection reagent JC-1.
as §1, with “24-well” for “12-well”, “8.0×10^4” for “1.6×10^5”, “4.0×10^4” for “8.0×10^4”, “of” for “of 0.2 μM or”
Apoptosis was detected by JC-1 Mitochondrial Membrane Potential Assay Kit. To each well, 50 μL of JC-1 Reagent of JC-1 Mitochondrial Membrane Potential Assay Kit was added and incubation was carried out for 20 minutes. Thereafter, 0.05% trypsin-EDTA was added to each well and incubation was carried out for 4 minutes. After a culture liquid was added, aliquots were separately taken and then centrifuged (1,200 rpm, 4 minutes) to collect cells. The collected cells were separately suspended in 300 μL of a culture liquid and analyzed by a cell sorter (Type SH-800, SONY Corporation, Tokyo). The ratios of red fluorescent negative cells in individual wells were calculated.

| Compound | Apoptosis induction of MB-1 cells (%) ([1]; imatinib 0.2 μM, Stelliferin A absent) | Apoptosis induction of MB-1 cells (%) ([1]; imatinib 1.0 μM, Stelliferin A absent) | Sensitivity of MB-1 cells cultured alone to imatinib (apoptosis) [2] | Number of CAs formed with OP9 cells exposed to Stelliferin A [3] | Niche formation by TF-1 cells [4] | CA reformation after removal of Stelliferin A [5] | Position of MB-1 cells relative to OP9 cell layer [6] | CA formation inhibitory activity [7] [µg/mL] | Apoptosis induction of MB-1 cells (%) ([1]; Stelliferin A present at 0.4 μg/mL plus imatinib 0.2 μM) | Apoptosis induction of MB-1 cells (%) ([1]; Stelliferin A present at 0.4 μg/mL plus imatinib 1.0 μM) | Apoptosis induction of MB-1 cells (%) ([1]; Stelliferin A present at 0.4 μg/mL, imatinib absent) | Ratio of MB-1 cells which induced apoptosis / NucView peak representing caspase 3 activity ([1]; presence of Stelliferin A with imatinib 0.2 μM and 1.0 μM compared to absence of Stelliferin A) | CA reformation of treated free MB-1 cells with fresh OP9 cells [8] | Apoptosis induction (JC-1, mitochondrial membrane potential difference disappeared) ([9]; co-presence of Stelliferin A 0.4 μg/mL and imatinib 1.0 μM) | Apoptosis induction (JC-1) when dose of imatinib was changed ([9]; in the presence of Stelliferin A, imatinib dose varied) |
| --- | --- | --- | --- | --- | --- | --- | --- | --- | --- | --- | --- | --- | --- | --- | --- |
| Cc1ccc(NC(=O)c2ccc(CN3CCN(C)CC3)cc2)cc1Nc1nccc(-c2cccnc2)n1 [Imatinib, imatinib, reference compound] | 8.07 | 12.14 | high sensitivity |  |  |  |  |  |  |  |  |  |  |  |  |
| Stelliferin A |  |  |  | the number of CAs formed was low | suppressed niche formation by TF-1 cells | CA was not reformed | MB-1 cells were exposed to the upper side of the OP9 cell layer | 0.08 | 22.39 | 44.63 | 16.03 | increased depending on each of the concentrations of Stelliferin A and imatinib; also recorded: statistically significantly (Student t test, p<0.05) increased | CA was reformed | apoptosis was induced | apoptosis was also induced in the dose-dependent manner of imatinib |
| Stelliferin B |  |  |  |  |  |  |  | 0.08 |  |  |  |  |  |  |  |
